The record followed here is ChEMBL document CHEMBL2203174, “SAR Development of Lysine-Based Irreversible Inhibitors of Transglutaminase 2 for Huntington's Disease” (ACS Med Chem Lett, 2012).

Series [1] concerns the target T1, Protein-glutamine gamma-glutamyltransferase 2 (Mus musculus, UniProt P21981).
T1 sequence (P21981 whole entry): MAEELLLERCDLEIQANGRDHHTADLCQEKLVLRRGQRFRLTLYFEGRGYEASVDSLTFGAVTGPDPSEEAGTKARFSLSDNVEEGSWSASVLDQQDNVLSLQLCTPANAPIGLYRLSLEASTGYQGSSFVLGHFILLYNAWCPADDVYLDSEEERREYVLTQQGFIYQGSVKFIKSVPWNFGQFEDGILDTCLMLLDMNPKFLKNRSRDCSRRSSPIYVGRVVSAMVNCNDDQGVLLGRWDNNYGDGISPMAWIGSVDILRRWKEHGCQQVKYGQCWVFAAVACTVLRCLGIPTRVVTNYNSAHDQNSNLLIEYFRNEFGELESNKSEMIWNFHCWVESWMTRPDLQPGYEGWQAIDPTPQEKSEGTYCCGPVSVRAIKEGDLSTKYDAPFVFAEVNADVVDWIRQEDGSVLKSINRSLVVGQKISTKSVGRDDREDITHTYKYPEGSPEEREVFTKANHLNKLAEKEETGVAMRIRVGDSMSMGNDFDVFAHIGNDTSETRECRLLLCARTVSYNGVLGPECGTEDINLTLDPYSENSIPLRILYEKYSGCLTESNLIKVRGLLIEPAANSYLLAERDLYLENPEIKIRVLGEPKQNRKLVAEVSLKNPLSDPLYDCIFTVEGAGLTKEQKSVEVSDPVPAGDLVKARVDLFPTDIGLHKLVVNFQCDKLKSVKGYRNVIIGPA
The series can be described thus: Inhibition of mouse transglutaminase 2.

Series [2] in a line: Aqueous solubility of the compound. To be noted: buffer. It counts as physicochemical.
Series [3] in a line: Apparent permeability of the compound across apical to basolateral side in human Caco2 cells. Format: ADME, cell-based. The conditions noted are these: Caco-2.
The nature of series [4]: Apparent permeability of the compound across basolateral to apical side in human Caco2 cells. Format: ADME, cell-based. To be noted: Caco-2. On the technique in general: Passage across Caco-2 layers is used to estimate intestinal permeability.
Series [5] deals with T2, Protein-glutamine gamma-glutamyltransferase K (Homo sapiens, UniProt P22735).
T2 sequence (P22735 whole entry): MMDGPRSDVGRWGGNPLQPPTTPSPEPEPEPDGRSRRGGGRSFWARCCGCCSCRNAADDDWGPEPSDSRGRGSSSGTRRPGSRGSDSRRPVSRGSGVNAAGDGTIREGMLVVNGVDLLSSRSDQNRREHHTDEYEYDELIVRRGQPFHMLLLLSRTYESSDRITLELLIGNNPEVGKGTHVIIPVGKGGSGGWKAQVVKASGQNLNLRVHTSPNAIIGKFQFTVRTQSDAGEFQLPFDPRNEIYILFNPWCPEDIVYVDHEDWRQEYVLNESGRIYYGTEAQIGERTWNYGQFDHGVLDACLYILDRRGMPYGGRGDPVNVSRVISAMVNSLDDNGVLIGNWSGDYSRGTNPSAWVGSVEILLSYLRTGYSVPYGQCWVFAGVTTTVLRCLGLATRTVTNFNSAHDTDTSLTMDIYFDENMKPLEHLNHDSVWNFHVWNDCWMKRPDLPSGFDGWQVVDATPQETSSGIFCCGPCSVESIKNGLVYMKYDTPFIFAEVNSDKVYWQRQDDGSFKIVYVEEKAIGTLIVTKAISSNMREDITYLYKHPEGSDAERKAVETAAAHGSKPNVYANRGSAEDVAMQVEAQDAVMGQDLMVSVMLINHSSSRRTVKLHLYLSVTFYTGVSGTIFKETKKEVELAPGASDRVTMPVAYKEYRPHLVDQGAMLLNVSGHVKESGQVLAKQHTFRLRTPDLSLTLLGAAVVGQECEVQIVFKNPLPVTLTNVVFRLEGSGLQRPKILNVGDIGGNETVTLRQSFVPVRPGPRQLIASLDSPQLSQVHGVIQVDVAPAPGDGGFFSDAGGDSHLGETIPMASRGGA
Briefly: Inhibition of transglutaminase 1.

Series [6] in a line: Half life in mouse liver microsomes. Format: ADME, Microsome. (Liver microsomes are a subcellular fraction often used to study metabolism.)
The nature of series [7]: Kinetic solubility of the compound in PBS at pH 7.4 by LC-UV analysis. To be noted: read-out: Kinetic_solubility. It counts as physicochemical.
A short description of series [8]: Half life in human plasma at 1 uM by LC-MS/MS analysis. Format: ADME, cell-free.
Series [9] in a line: Half life in mouse plasma at 1 uM by LC-MS/MS analysis. It counts as ADME, cell-free.
A short description of series [10]: Apparent permeability of the compound across apical to basolateral side in wild type MDCK cells at 10 uM. It counts as ADME, cell-based, Canis lupus familiaris. The conditions noted are these: dog.
Series [11] can be described thus: Intrinsic clearance in human liver microsomes at 1 uM by LC-MS/MS analysis. Format: ADME, Microsome. To be noted: read-out: CLH.
The next series relates to MDR1. Briefly: Efflux ratio of permeability in MDCK cells expressing MDR1 at 10 uM. Format: ADME, cell-based, Canis lupus familiaris. The conditions noted are these: dog.
The nature of series [12]: Intrinsic clearance in mouse liver microsomes at 1 uM by LC-MS/MS analysis. To be noted: read-out: CLH. It counts as ADME, Microsome.
Series [13] can be described thus: Ratio of IC50 for mouse transglutaminase 2 to IC50 for human transglutaminase 2.

In brackets after ≈: the same amount, converted by molar mass. Peptide text beside a SMILES is read from it. * marks the point of attachment. Cbz = O=C(OCc1ccccc1)*; Acryloyl = C=CC(=O)*; OtBu = CC(C)(C)O*

The term IC50 denotes the concentration that gives 50% inhibition. Low readings indicate greater potency, high ones weaker potency. As a reminder, the solubility is the concentration that dissolves in the medium under given conditions. As a reminder, the Papp A→B is how fast a substance crosses the layer from the apical side. In general, Papp B→A refers to how fast a substance crosses the layer from the basolateral side. The term half-life denotes the time in which the quantity being followed falls by half. `C=CC(=O)NCCCC[C@H](NC(=O)OCc1ccccc1)C(=O)NCC(=O)OC(C)(C)C` (Cbz-Lys(Acryloyl)-Gly-OtBu): the half-inhibitory concentration (IC50) was 6.2 µM in [1] and greater than 80 µM in series [5]. This compound also returned a solubility in [2] of 1490 µg/mL (≈ 3330 µM). The Papp A→B in series [3] came to 7.5 ×10⁻⁶ cm/s. Also, the Papp B→A in series [4] stood at 25 ×10⁻⁶ cm/s. Moreover, the half-life in series [6] amounted to 7 min.
By efflux ratio is commonly meant a quotient of directional permeabilities that is used to spot active efflux. As for `C=CC(=O)NCCCC[C@H](NC(=O)Cc1ccccc1)C(=O)N1CCN(c2cccc(C)n2)CC1`, the solubility kinetic in series [7] was 870 µg/mL (≈ 1820 µM). For the same compound, the half-life at 1 µM in series [8] and in series [9] was greater than 24 h throughout. Also, the apical-to-basolateral permeability (Papp A→B) at 10 µM in series [10] was found to be 14.2 ×10⁻⁶ cm/s. In series [5], this compound gave a concentration for half-maximal inhibition (IC50) of 15 µM. In series [11], the microsomal CLint at 1 µM is greater than 1390 µL/min/mg. Also, the efflux ratio at 10 µM in the series on MDR1 stood at 118.
Regarding `C=CC(=O)NCCCC[C@H](NC(=O)OCc1ccccc1)C(=O)N1CCN(c2ccccc2Cl)CC1`, the solubility kinetic in series [7] was 60 µg/mL (≈ 117 µM). Besides, the half-life at 1 µM in [8] and in series [9] was greater than 8 h in each case. Besides, in [10], the apparent permeability from apical to basolateral (Papp A→B) at 10 µM was 30.3 ×10⁻⁶ cm/s. Besides, the microsomal CLint at 1 µM in series [12] and in series [11] was greater than 1390 µL/min/mg in each case. Moreover, half-maximal inhibition in series [5] (IC50) required 12.9 µM. In addition, the Ratio IC50 in series [13] was determined as 2. The efflux ratio at 10 µM in the series on MDR1 came out at 7.1.
